From patent US20230414826A1, “FIBRIN HYDROGELS” (Mayo Foundation for Medical Education and Research, priority 2020, published 2023)

Target: T1, fibrin gels (40 mg/mL fibrinogen, 33 U/mL thrombin) (Homo sapiens, UniProt P02671+P02675+P02679)
T1 construct: purchased Ethicon (Evicel)
T1 sequence (P02671 20-644 isoform P02671-2 limits assumed): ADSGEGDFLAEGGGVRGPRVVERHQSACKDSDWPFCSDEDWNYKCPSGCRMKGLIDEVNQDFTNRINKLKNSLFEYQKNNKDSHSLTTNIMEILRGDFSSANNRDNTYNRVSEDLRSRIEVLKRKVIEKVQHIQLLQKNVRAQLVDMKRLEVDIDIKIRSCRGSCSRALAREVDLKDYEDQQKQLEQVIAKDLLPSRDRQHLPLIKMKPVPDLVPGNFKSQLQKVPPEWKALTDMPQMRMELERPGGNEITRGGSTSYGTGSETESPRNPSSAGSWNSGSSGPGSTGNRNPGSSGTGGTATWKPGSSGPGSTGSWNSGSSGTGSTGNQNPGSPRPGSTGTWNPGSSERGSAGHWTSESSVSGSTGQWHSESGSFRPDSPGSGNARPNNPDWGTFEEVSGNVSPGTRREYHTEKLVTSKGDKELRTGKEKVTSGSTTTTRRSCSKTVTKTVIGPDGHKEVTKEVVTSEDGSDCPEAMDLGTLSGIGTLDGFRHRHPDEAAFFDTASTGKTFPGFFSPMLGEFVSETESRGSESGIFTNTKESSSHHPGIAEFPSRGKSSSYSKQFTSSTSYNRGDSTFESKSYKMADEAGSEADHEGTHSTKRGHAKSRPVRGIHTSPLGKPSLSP
T1 sequence (P02675 45-491 limits assumed): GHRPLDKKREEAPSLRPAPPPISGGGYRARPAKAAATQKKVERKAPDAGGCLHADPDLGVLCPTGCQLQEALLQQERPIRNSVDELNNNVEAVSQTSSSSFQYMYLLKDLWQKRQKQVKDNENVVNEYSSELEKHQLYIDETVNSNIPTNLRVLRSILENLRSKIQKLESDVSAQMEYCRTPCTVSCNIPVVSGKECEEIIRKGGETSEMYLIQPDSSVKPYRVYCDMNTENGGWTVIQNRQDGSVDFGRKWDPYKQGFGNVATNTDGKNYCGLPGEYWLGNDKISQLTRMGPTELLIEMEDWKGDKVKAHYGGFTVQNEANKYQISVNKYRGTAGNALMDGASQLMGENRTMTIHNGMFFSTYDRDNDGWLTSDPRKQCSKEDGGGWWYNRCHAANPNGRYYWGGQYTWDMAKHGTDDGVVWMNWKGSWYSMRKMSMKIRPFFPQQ
T1 sequence (P02679 27-437 isoform P02679-2 limits assumed): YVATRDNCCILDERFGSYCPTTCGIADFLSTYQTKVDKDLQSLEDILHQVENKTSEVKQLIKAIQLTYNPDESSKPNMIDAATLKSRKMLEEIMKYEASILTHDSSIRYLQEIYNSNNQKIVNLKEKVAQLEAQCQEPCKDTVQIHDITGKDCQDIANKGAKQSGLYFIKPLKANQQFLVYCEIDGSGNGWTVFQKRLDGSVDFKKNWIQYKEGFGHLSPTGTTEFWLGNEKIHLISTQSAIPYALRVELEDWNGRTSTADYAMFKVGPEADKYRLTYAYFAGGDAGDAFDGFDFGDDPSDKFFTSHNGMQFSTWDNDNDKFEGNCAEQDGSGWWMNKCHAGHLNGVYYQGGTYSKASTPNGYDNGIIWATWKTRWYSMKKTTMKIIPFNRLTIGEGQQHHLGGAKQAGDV
Experiment: Transmission electron microscopy of fibrin gel cross sections
Details: TEM, 0.12% w/v dye
Method: Both scanning electron microscopy (SEM) and transmission electron microscopy (TEM) were performed to investigate the effect of the chemical additives on fibril formation microstructure. Gels were made with PBS, TB, or EB as described elsewhere (see, e.g., Gandhi et al., 2018 Acta Biomater., 67:134-46) with the following modifications. Briefly, a mixture of 40 mg/mL fibrinogen, 33 U/mL thrombin, and 0.12% w/v dye final concentrations was plated into a custom acetal mold to create the 300 μm sheet. After a 2 hour incubation at 37° C., the gels were hydrated in PBS for a minimum of 15 minutes.
The gels were then fixed overnight in 2.5% paraformaldehyde and 1% glutaraldehyde in 0.1 M phosphate buffer pH 7 containing 1.0 mM MgCl2 and 0.13 mM CaCl2. After fixation, gels were processed for scanning electron microscopy (SEM). Samples for TEM were processed by initially dehydrating the gels, embedding into plastic resin, and sectioned at a thickness of 100 nm. SEM imaging was performed using a Hitachi S-4700 (Hitachi High Technologies; Schaumburg, IL) microscope. Sections processed for TEM were imaged used a JEOL 1400 microscope (JEOL; Peabody, MA).
TEM was then performed to visualize the cross section of the fibrin gels. […] The PBS fibrin gel appears to have larger mesh spaces, with a large range of fibril diameters and orientation. […]

SMILES: Cc1cc(-c2ccc(/N=N/c3ccc4c(S(=O)(=O)O)cc(S(=O)(=O)O)c(N)c4c3O)c(C)c2)ccc1/N=N/c1ccc2c(S(=O)(=O)O)cc(S(=O)(=O)O)c(N)c2c1O [EB, Evans Blue]
- largest fibril diameters: 40-60 nm

SMILES: Cc1cc(-c2ccc(/N=N/c3c(S(=O)(=O)O)cc4cc(S(=O)(=O)O)cc(N)c4c3O)c(C)c2)ccc1/N=N/c1c(S(=O)(=O)O)cc2cc(S(=O)(=O)O)cc(N)c2c1O [TB, Trypan Blue]
- largest fibril diameters: 50-75 nm
